This test deals with T1, GCase (Homo sapiens, UniProt P04062).
T1 construct: endogenous in cells; host or cells: HeLa cells
T1 sequence (P04062 40-536): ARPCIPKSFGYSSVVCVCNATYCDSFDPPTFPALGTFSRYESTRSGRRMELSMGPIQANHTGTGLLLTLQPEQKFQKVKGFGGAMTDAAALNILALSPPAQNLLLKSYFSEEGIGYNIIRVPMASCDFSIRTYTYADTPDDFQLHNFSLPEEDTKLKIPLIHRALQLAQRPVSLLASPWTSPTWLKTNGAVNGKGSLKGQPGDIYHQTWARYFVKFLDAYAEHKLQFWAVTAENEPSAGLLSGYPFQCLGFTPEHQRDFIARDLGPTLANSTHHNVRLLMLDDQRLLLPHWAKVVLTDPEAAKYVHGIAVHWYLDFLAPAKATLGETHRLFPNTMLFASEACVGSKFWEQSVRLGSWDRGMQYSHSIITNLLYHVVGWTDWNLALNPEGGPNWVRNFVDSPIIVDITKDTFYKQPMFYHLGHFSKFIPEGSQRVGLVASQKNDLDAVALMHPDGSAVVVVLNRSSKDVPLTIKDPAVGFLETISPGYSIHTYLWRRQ
Description: activation of GCase in a live cell PFB assay in HELA cells. Type of test: cell-based.

The molecule `O=C(C1CCCCC12CC2)N1CCCC(COc2ccccc2)C1` (stereo not shown) [Compound 209] gave an EC50 of 10 to 50 µM.

`Cc1ccccc1OCC1CCCN(C(=O)c2cnn3c(-c4ccccc4C#N)ccc(F)c23)C1` (stereo not shown) [Compound 296, 2-(4-Fluoro-3-(3-((o-tolyloxy)methyl)piperidine-1-carbonyl)pyrazolo[1,5-a]pyridin-7-yl)benzonitrile] yielded an EC50 of less than 10 µM.

For the molecule `COc1ccc(OCC2CCN(CC(C)(C)N3CCOCC3)CC2)cc1` [Compound 467], the EC50 is greater than 100 µM.

`C[C@@H]1CC[C@H](COc2ccc(C(F)(F)F)nc2)CN1c1cnc2cnn(CC(F)F)c2n1` [Compound 272, 1-(2,2-Difluoroethyl)-6-((2R,5S)-2-methyl-5-(((6-(trifluoromethyl)pyridin-3-yl)oxy)methyl)piperidin-1-yl)-1H-pyrazolo[3,4-b]pyrazine] showed a concentration for a half-maximal effect (EC50) of 10 to 50 µM.

`CCc1noc(CNC(=O)N2CCC(COc3ccc(OC)cc3)CC2)n1` [Compound 436] showed an EC50 greater than 100 µM.

For the molecule `C[C@@H]1CC[C@H](COc2cc(C(F)(F)F)ccn2)CN1c1cnc2cnn(CC(F)F)c2n1` [Compound 276, 1-(2,2-Difluoroethyl)-6-((2R,5S)-2-methyl-5-(((4-(trifluoromethyl)pyridin-2-yl)oxy)methyl)piperidin-1-yl)-1H-pyrazolo[3,4-b]pyrazine], the concentration for a half-maximal effect (EC50) lay within 50 to 100 µM.

In turn, `Cn1c(-c2ccc(F)cc2)nc2ncc(C(=O)N3C[C@@H]4[C@@H](COc5cccnc5C(F)(F)F)[C@@H]4C3)nc21` [Compound 224] had a concentration for a half-maximal effect (EC50) of 10 to 50 µM.

In the case of `O=C(c1cnc2c(cnn2-c2ccccc2)n1)N1CCCC(COc2cccnc2C(F)(F)F)C1` (stereo not shown) [Compound 103, (1-Phenyl-1H-pyrazolo[3,4-b]pyrazin-5-yl)(3-(((2-(trifluoromethyl)pyridin-3-yl)oxy)methyl)piperidin-1-yl)methanone], the 50% effective concentration (EC50) is 10 to 50 µM.

`C[C@H](Oc1ccccc1C(F)(F)F)[C@@H]1CCCN(c2cnc3cnn(CC(F)F)c3n2)C1` (racemic) [Compound 5c] registered an EC50 of less than 10 µM.

`O=C(c1cn(CC2CCCCC2)nn1)N1CCC(OCc2ccccc2)CC1` [Compound 419] displayed an EC50 greater than 100 µM.

For the molecule `FC(F)(F)c1ccc2sc([C@H]3[C@@H]4CN(c5cnc6cnn(C7COC7)c6n5)C[C@@H]43)nc2c1` [Compound 290, 2-((1R,5S,6r)-3-(1-(Oxetan-3-yl)-1H-pyrazolo[3,4-b]pyrazin-6-yl)-3-azabicyclo[3.1.0]hexan-6-yl)-5-(trifluoromethyl)benzo[d]thiazole], the 50% effective concentration (EC50) lay in the range of 10 to 50 µM.

In turn, `O=C(N1CCCC(COc2ccccc2)C1)C1(c2nnc(-c3ccccc3)o2)CCOCC1` (stereo not shown) [Compound 46, (3-(Phenoxymethyl)piperidin-1-yl)(4-(5-phenyl-1,3,4-oxadiazol-2-yl)tetrahydro-2H-pyran-4-yl)methanone] registered a 50% effective concentration (EC50) of 10 to 50 µM.

As for `C[C@@H]1CC[C@H](COc2ccc(C(F)(F)F)cn2)CN1c1cnc2cnn(CC(F)F)c2n1` [Compound 275, 1-(2,2-Difluoroethyl)-6-((2R,5S)-2-methyl-5-(((5-(trifluoromethyl)pyridin-2-yl)oxy)methyl)piperidin-1-yl)-1H-pyrazolo[3,4-b]pyrazine], the EC50 is greater than 100 µM.

As for `FC(F)Cn1ncc2ncc(N3CCC(COc4ccc(C(F)(F)F)nc4)CC3)nc21` [Compound 316, 1-(2,2-Difluoroethyl)-6-(4-(((6-(trifluoromethyl)pyridin-3-yl)oxy)methyl)piperidin-1-yl)-1H-pyrazolo[3,4-b]pyrazine], the half-maximal effective concentration (EC50) is less than 10 µM.

Take `CC(CC1CCCN(c2cnc3cnn(CC(F)F)c3n2)C1)c1ccccc1C(F)(F)F` (stereo not shown) [Compound 66, 1-(2,2-Difluoroethyl)-6-(3-(2-(2-(trifluoromethyl)phenyl)propyl)piperidin-1-yl)-1H-pyrazolo[3,4-b]pyrazine]: the EC50 was 10 to 50 µM.

As for `COc1ccc(OCC2CCN(Cc3cnc(C)[nH]3)CC2)cc1` [Compound 444], the concentration giving a half-maximal response (EC50) is greater than 100 µM.

As to `Cc1ccccc1CCC(=O)N1CCCC(COc2ccccc2)C1` (stereo not shown) [Compound 129], the EC50 is 10 to 50 µM.

On to `COc1ccc(OCC2CCN(C(=O)Nc3cccc(CN)c3)CC2)cc1` [Compound 442], for which the EC50 is greater than 100 µM.

Regarding `C[C@H]1CC[C@@H](COc2cccnc2C(F)(F)F)CN1c1cnc2cnn(CC(F)F)c2n1` [Compound 77, 1-(2,2-Difluoroethyl)-6-((2S,5R)-2-methyl-5-(((2-(trifluoromethyl)pyridin-3-yl)oxy)methyl)piperidin-1-yl)-1H-pyrazolo[3,4-b]pyrazine], the 50% effective concentration (EC50) was less than 10 µM.

The molecule `CCc1ncc(C(=O)N2CCC(COc3ccc4c(c3)CCC4)CC2)cn1` [Compound 426] came in with a concentration giving a half-maximal response (EC50) of 10 to 50 µM.

With `FC(F)Cn1ncc2ncc(N3CCC(F)(F)C(COc4cccc(C(F)(F)F)n4)C3)nc21` (stereo not shown) [Compound 42, 2-({1-[1-(2,2-Difluoroethyl)-1H-pyrazolo[3,4-b]pyrazin-6-yl]-4,4-difluoropiperidin-3-yl}methoxy)-6-(trifluoromethyl)pyridine], the EC50 was 10 to 50 µM.

Regarding `C[C@H]1CC[C@H](COc2cccnc2C(F)(F)F)CN1c1cnc2cnn(CC(F)F)c2n1` [Compound 78, 3-{[(3S,6S)-1-[1-(2,2-Difluoroethyl)pyrazolo[3,4-b]pyrazin-6-yl]-6-methylpiperidin-3-yl]methoxy}-2-(trifluoromethyl)pyridine], the concentration giving a half-maximal response (EC50) is greater than 100 µM.

Molecule `Cc1nc(-n2cccc2)sc1C(=O)N1CCCC(COc2ccccc2)C1` (stereo not shown) [Compound 163] showed an EC50 of 10 to 50 µM.

On to `FC(F)Cn1ncc2ncc(N3CCC(Oc4cccc(C(F)(F)F)n4)CC3)nc21` [Compound 309, 1-(2,2-Difluoroethyl)-6-(4-((6-(trifluoromethyl)pyridin-2-yl)oxy)piperidin-1-yl)-1H-pyrazolo[3,4-b]pyrazine], for which the EC50 was in the range of 10 to 50 µM.

`CC1CC(COc2cccnc2C(F)(F)F)CN(c2cnc3cnn(CC(F)(F)F)c3n2)C1` (stereo not shown) [Compound 127, 6-(3-Methyl-5-(((2-(trifluoromethyl)pyridin-3-yl)oxy)methyl)piperidin-1-yl)-1-(2,2,2-trifluoroethyl)-1H-pyrazolo[3,4-b]pyrazine]: the concentration giving a half-maximal response (EC50) was less than 10 µM.

Consider `C[C@@H]1C[C@@H](COc2cccnc2C(F)(F)F)CN(c2cnc3cnn(CC(F)F)c3n2)C1` [Compound 95, 1-(2,2-Difluoroethyl)-6-((3R,5R)-3-methyl-5-(((2-(trifluoromethyl)pyridin-3-yl)oxy)methyl)piperidin-1-yl)-1H-pyrazolo[3,4-b]pyrazine], for which the concentration giving a half-maximal response (EC50) was less than 10 µM.

Consider `COc1ccc(CCCC(=O)N2CCCC(COc3ccccc3)C2)cc1` (stereo not shown) [Compound 182], for which the 50% effective concentration (EC50) lay within 10 to 50 µM.

In turn, `FC(F)Cn1ncc2ncc(N3CC4CC4(COc4cc(C(F)(F)F)ccn4)C3)nc21` (stereo not shown) [Compound 285, 3-[1-(2,2-Difluoroethyl)-1H-pyrazolo[3,4-b]pyrazin-6-yl]-1-({[4-(trifluoromethyl)pyridin-2-yl]oxy}methyl)-3-azabicyclo[3.1.0]hexane] yielded a 50% effective concentration (EC50) of 10 to 50 µM.

In turn, `Cc1ccccc1OCC1CCCN(C(=O)c2cnc3c(cc(-c4ccccc4)n3C)n2)C1` (stereo not shown) [Compound 52, (5-methyl-6-phenyl-5H-pyrrolo[2,3-b]pyrazin-2-yl)(3-((o-tolyloxy)methyl)piperidin-1-yl)methanone] had a 50% effective concentration (EC50) of 10 to 50 µM.

As to `Cc1ccc(-c2nc(N3CCC(CO)CC3)ncc2-c2ccc(CO)cc2)cc1` [Compound 485], the EC50 was in the range of 10 to 50 µM.

For the molecule `CO[C@@H]1CCN(c2cnc3cnn(CC(F)F)c3n2)C[C@@H]1COc1cccnc1C(F)(F)F` [Compound 298a, 1-(2,2-Difluoroethyl)-6-((3R,4R)-4-methoxy-3-(((2-(trifluoromethyl)pyridin-3-yl)oxy)methyl)piperidin-1-yl)-1H-pyrazolo[3,4-b]pyrazine], the EC50 was in the range of 50 to 100 µM.

Molecule `CCc1cnc(C)nc1N1CCC(COc2ccc(OC)cc2)CC1` [Compound 475] returned a concentration for a half-maximal effect (EC50) of 10 to 50 µM.

Molecule `FC(F)Cn1ncc2ncc(N3CCC(COc4cc(C(F)(F)F)ccn4)CC3)nc21` [Compound 324, 2-({1-[1-(2,2-Difluoroethyl)-1H-pyrazolo[3,4-b]pyrazin-6-yl]piperidin-4-yl}methoxy)-4-(trifluoromethyl)pyridine] showed a half-maximal effective concentration (EC50) of 10 to 50 µM.

With `COc1ccc(OCC2CCN(Cc3ccncc3C)CC2)cc1` [Compound 445], the EC50 is greater than 100 µM.

On to `CCCC(C(=O)N1CCCC(COc2ccccc2)C1)n1nccc1C1CC1` (stereo not shown) [Compound 9], for which the EC50 is 10 to 50 µM.

Consider `CCn1ncc2ncc(N3CCCC(COc4ccccc4C(F)(F)F)C3)nc21` (stereo not shown) [Compound 16, 1-{1-ethylpyrazolo[3,4-b]pyrazin-6-yl}-3-[2-(trifluoromethyl)phenoxymethyl]piperidine], for which the EC50 is 10 to 50 µM.

Turning to `FC(F)Cn1ncc2ncc(N3C[C@@H]4[C@@H](COc5cc(C(F)(F)F)ccn5)[C@@H]4C3)nc21` [Compound 90, (1R,5S,6S)-3-[1-(2,2-difluoroethyl)-1H-pyrazolo[3,4-b]pyrazin-6-yl]-6-({[4-(trifluoromethyl)pyridin-2-yl]oxy}methyl)-3-azabicyclo[3.1.0]hexane], the concentration giving a half-maximal response (EC50) is 10 to 50 µM.

Take `Cc1cc(C(=O)N2CCCC(COc3ccccc3)C2)c(C)n1C(C)C` (stereo not shown) [Compound 170]: the EC50 is 10 to 50 µM.

Take `FC(F)Cn1ncc2ncc(N3CCC(COc4cccc(C(F)(F)F)n4)CC3)nc21` [Compound 328, 2-({1-[1-(2,2-Difluoroethyl)-1H-pyrazolo[3,4-b]pyrazin-6-yl]piperidin-4-yl}methoxy)-6-(trifluoromethyl)pyridine]: the concentration giving a half-maximal response (EC50) was 10 to 50 µM.

Regarding `CSCc1ccc(C(=O)N2CCC(OCc3ccccc3)CC2)o1` [Compound 435], the concentration for a half-maximal effect (EC50) was greater than 100 µM.

The EC50 is the concentration at which the effect is half-maximal.

Values taken from patent US20240262832A1, “SMALL MOLECULE MODULATORS OF GLUCOCEREBROSIDASE ACTIVITY AND USES THEREOF” (Vanqua Bio, Inc., priority 2021, published 2024).
